In EP2161278B1, “Single-chain coiled coil scaffold” (Complix N.V., priority 2008, dated 2010):
“Also recorded” adds a separate entry of the source. Peptide text beside a SMILES is read from it.

Assay: Thermal denaturation of trimeric coiled coil peptides by CD thermal scan (signal at 222 nm versus temperature, curve fitting)
Type: physicochemical
Details: for effect of core substitution on stability (transition temperature) compared to the reference peptide comprising isoleucine at positions 3a and 3d: core mutants at positions 3a and 3d of the reference peptide with glutamine at 2a, Figure 9
Procedure: The said synthesized peptide was dissolved at a concentration of 292 microM in 20 mM phosphate buffer (PBS), 150 mM NaCl, pH 7.2. The CD spectra were measured between […], at 5 and 90 degrees Celsius (Figure 3). The spectrum at 5 degrees Celsius was indicative of a high alpha-helical secondary structure content, in agreement with the expectation that all heptad regions, but not all of the flanking residues, would assemble as alpha-helical coiled coils.
To analyse whether the temperature-induced transition between helical and nonhelical states was reversible, a forward (up) and backward (down) thermal scan was performed on the same sample, by recording the CD signal at […] as a function of temperature at a scanning rate of about 1 degree Celsius per minute (Figure 4). It was observed that the up and down scans almost perfectly coincided, thereby confirming the quantitative unfolding and refolding of the peptides in the sample.
It was further analyzed whether the thermal unfolding curve of Figure 4 conformed to the thermodynamic equations describing the equilibrium folding/unfolding reaction between three molecules free (monomeric) peptide and one entity of folded (trimeric) complex. This reaction is generally written as 3 peptide <=> peptide3 wherein "<=>" refers to a chemical equilibrium, "peptide" to a monomeric peptide in solution and "peptide3" to a trimeric entity in the folded (assembled, associated) state. This thermal unfolding curve was fitted to the theoretic equations: θ(T) = θM (T) + (θT(T)-θM(T))(1+root(F(-(1)/(2)+sqrt((1)/(4) + (F)/(27))), 3)+root(F(-(1)/(2)-sqrt((1)/(4) + (F)/(27))), 3)) [formula] wherein F = (exp(-(ΔHt)/(RT)(1-T/T1)-(ΔCp)/(RT)(T-Tt-Tln(T/Tt))))/(4) [formula] and T≡ the temperature, in degrees Kelvin, of the sample θ(T)≡ the CD-signal [theta]222 nm, in deg cm^2 dmol^-1, as a function of T θM(T)≡ the CD-signal for 100% free (monomeric) peptide as a function of T θT(T) ≡ the CD-signal for 100% associated (trimeric) peptide as a function of T Tt ≡ the transition temperature, where 50% of the total peptide concentration is associated ΔHt ≡ the enthalpy difference, in kJ per mole peptide, between mono- and trimeric states ΔCp ≡ the heat capacity difference, in J mol^-1 K^-1, between mono- and trimeric states R ≡ the ideal (universal) gas constant ≡ 8.31 J mol^-1 K^-1
The global CD signal was somewhat lower than expected, which could be due to an instrumental deviation, an error in the concentration determination, a lower purity, or a lower than expected alpha-helical content. Nevertheless, the main goal of this experiment was to examine the effect of the glutamine-to-isoleucine mutant on the stability of the complex. […] The estimated transition temperature was around 97 degrees Celsius, although the latter was difficult to determine because of incompleteness of the transition.
All ten peptides were analyzed by thermal CD scanning as in Examples 3 and 4. Fitting of the thermal denaturation curves, as described in Example 3, gave the corresponding transition temperatures shown in Figure 9. […]

| Structure (SMILES) | thermal stability (resistance against thermal denaturation), in words (CD thermal scan) | effect of core substitution on stability (transition temperature) compared to the reference peptide comprising isoleucine at positions 3a and 3d | other results |
| --- | --- | --- | --- |
| CC[C@H](C)[C@H](NC(=O)[C@H](C)NC(=O)[C@H](C)NC(=O)[C@@H](NC(=O)[C@H](CCC(N)=O)NC(=O)[C@H](CCCCN)NC(=O)[C@H](CCC(N)=O)NC(=O)[C@@H](NC(=O)[C@H](CCC(=O)O)NC(=O)[C@H](CCC(=O)O)NC(=O)[C@@H](NC(=O)[C@H](CO)NC(=O)[C@H](CCSC)NC(C)=O)[C@@H](C)CC)[C@@H](C)CC)[C@@H](C)CC)C(=O)N[C@@H](CCC(N)=O)C(=O)N[C@@H](CCCCN)C(=O)N[C@@H](CCC(N)=O)C(=O)N[C@H](C(=O)N[C@@H](C)C(=O)N[C@@H](C)C(=O)N[C@H](C(=O)N[C@@H](CCC(N)=O)C(=O)N[C@@H](CCCCN)C(=O)N[C@@H](CCC(N)=O)C(=O)N[C@H](C(=O)N[C@@H](Cc1ccc(O)cc1)C(=O)N[C@@H](CCCNC(=N)N)C(=O)N[C@@H](CCSC)C(=O)N[C@H](C(=O)N1CCC[C@H]1C(N)=O)[C@@H](C)O)[C@@H](C)CC)[C@@H](C)CC)[C@@H](C)CC [Q2aI] (Ac-MSIEEIQKQIAAIQKQIAAIQKQIYRMTP-NH2) | extremely thermostable; also recorded: thermally stable | – | estimated transition temperature (292 microM peptide in 20 mM phosphate buffer (PBS), 150 mM NaCl, pH 7.2, CD signal at 222 nM, difficult to determine because transition incomplete): around 97 degrees Celsius; did not quantitatively unfold up to (CD thermal scan): 95 degrees Celsius; thermal stability (resistance against thermal denaturation), in words (CD thermal scan, listed as all-isoleucine core peptide): very high thermal stability; reversibility of thermal unfolding (down-scan recovery of the CD signal) (up and down thermal scan, about 1 degree Celsius per minute): full reversibility |
| CC[C@H](C)[C@H](NC(=O)[C@H](C)NC(=O)[C@H](C)NC(=O)[C@H](CCC(N)=O)NC(=O)[C@H](CCC(N)=O)NC(=O)[C@H](CCCCN)NC(=O)[C@H](CCC(N)=O)NC(=O)[C@@H](NC(=O)[C@H](CCC(=O)O)NC(=O)[C@H](CCC(=O)O)NC(=O)[C@@H](NC(=O)[C@H](CO)NC(=O)[C@H](CCSC)NC(C)=O)[C@@H](C)CC)[C@@H](C)CC)C(=O)N[C@@H](CCC(N)=O)C(=O)N[C@@H](CCCCN)C(=O)N[C@@H](CCC(N)=O)C(=O)N[C@H](C(=O)N[C@@H](C)C(=O)N[C@@H](C)C(=O)N[C@H](C(=O)N[C@@H](CCC(N)=O)C(=O)N[C@@H](CCCCN)C(=O)N[C@@H](CCC(N)=O)C(=O)N[C@H](C(=O)N[C@@H](Cc1ccc(O)cc1)C(=O)N[C@@H](CCCNC(=N)N)C(=O)N[C@@H](CCSC)C(=O)N[C@H](C(=O)N1CCC[C@H]1C(N)=O)[C@@H](C)O)[C@@H](C)CC)[C@@H](C)CC)[C@@H](C)CC [Q2a] (Ac-MSIEEIQKQQAAIQKQIAAIQKQIYRMTP-NH2) | moderately stable | – | – |
| CC[C@H](C)[C@H](NC(=O)[C@H](C)NC(=O)[C@H](C)NC(=O)[C@H](CCC(N)=O)NC(=O)[C@H](CCC(N)=O)NC(=O)[C@H](CCCCN)NC(=O)[C@H](CCC(N)=O)NC(=O)[C@@H](NC(=O)[C@H](CCC(=O)O)NC(=O)[C@H](CCC(=O)O)NC(=O)[C@@H](NC(=O)[C@H](CO)NC(=O)[C@H](CCSC)NC(C)=O)[C@@H](C)CC)[C@@H](C)CC)C(=O)N[C@@H](CCC(N)=O)C(=O)N[C@@H](CCCCN)C(=O)N[C@@H](CCC(N)=O)C(=O)N[C@H](C(=O)N[C@@H](C)C(=O)N[C@@H](C)C(=O)N[C@@H](CC(C)C)C(=O)N[C@@H](CCC(N)=O)C(=O)N[C@@H](CCCCN)C(=O)N[C@@H](CCC(N)=O)C(=O)N[C@H](C(=O)N[C@@H](Cc1ccc(O)cc1)C(=O)N[C@@H](CCCNC(=N)N)C(=O)N[C@@H](CCSC)C(=O)N[C@H](C(=O)N1CCC[C@H]1C(N)=O)[C@@H](C)O)[C@@H](C)CC)[C@@H](C)CC [3dL] (Ac-MSIEEIQKQQAAIQKQIAALQKQIYRMTP-NH2) | – | slightly stabilizing effect | – |
| CC[C@H](C)[C@H](NC(=O)[C@H](C)NC(=O)[C@H](C)NC(=O)[C@H](CCC(N)=O)NC(=O)[C@H](CCC(N)=O)NC(=O)[C@H](CCCCN)NC(=O)[C@H](CCC(N)=O)NC(=O)[C@@H](NC(=O)[C@H](CCC(=O)O)NC(=O)[C@H](CCC(=O)O)NC(=O)[C@@H](NC(=O)[C@H](CO)NC(=O)[C@H](CCSC)NC(C)=O)[C@@H](C)CC)[C@@H](C)CC)C(=O)N[C@@H](CCC(N)=O)C(=O)N[C@@H](CCCCN)C(=O)N[C@@H](CCC(N)=O)C(=O)N[C@H](C(=O)N[C@@H](C)C(=O)N[C@@H](C)C(=O)N[C@H](C(=O)N[C@@H](CCC(N)=O)C(=O)N[C@@H](CCCCN)C(=O)N[C@@H](CCC(N)=O)C(=O)N[C@H](C(=O)N[C@@H](Cc1ccc(O)cc1)C(=O)N[C@@H](CCCNC(=N)N)C(=O)N[C@@H](CCSC)C(=O)N[C@H](C(=O)N1CCC[C@H]1C(N)=O)[C@@H](C)O)[C@@H](C)CC)[C@@H](C)CC)C(C)C [3aV] (Ac-MSIEEIQKQQAAIQKQVAAIQKQIYRMTP-NH2) | – | moderately | – |
| CC[C@H](C)[C@H](NC(=O)[C@H](C)NC(=O)[C@H](C)NC(=O)[C@H](CCC(N)=O)NC(=O)[C@H](CCC(N)=O)NC(=O)[C@H](CCCCN)NC(=O)[C@H](CCC(N)=O)NC(=O)[C@@H](NC(=O)[C@H](CCC(=O)O)NC(=O)[C@H](CCC(=O)O)NC(=O)[C@@H](NC(=O)[C@H](CO)NC(=O)[C@H](CCSC)NC(C)=O)[C@@H](C)CC)[C@@H](C)CC)C(=O)N[C@@H](CCC(N)=O)C(=O)N[C@@H](CCCCN)C(=O)N[C@@H](CCC(N)=O)C(=O)N[C@H](C(=O)N[C@@H](C)C(=O)N[C@@H](C)C(=O)N[C@@H](CCC(N)=O)C(=O)N[C@@H](CCC(N)=O)C(=O)N[C@@H](CCCCN)C(=O)N[C@@H](CCC(N)=O)C(=O)N[C@H](C(=O)N[C@@H](Cc1ccc(O)cc1)C(=O)N[C@@H](CCCNC(=N)N)C(=O)N[C@@H](CCSC)C(=O)N[C@H](C(=O)N1CCC[C@H]1C(N)=O)[C@@H](C)O)[C@@H](C)CC)[C@@H](C)CC [3dQ] (Ac-MSIEEIQKQQAAIQKQIAAQQKQIYRMTP-NH2) | – | disruptive | – |
| CC[C@H](C)[C@H](NC(=O)[C@H](C)NC(=O)[C@H](C)NC(=O)[C@H](CCC(N)=O)NC(=O)[C@H](CCC(N)=O)NC(=O)[C@H](CCCCN)NC(=O)[C@H](CCC(N)=O)NC(=O)[C@@H](NC(=O)[C@H](CCC(=O)O)NC(=O)[C@H](CCC(=O)O)NC(=O)[C@@H](NC(=O)[C@H](CO)NC(=O)[C@H](CCSC)NC(C)=O)[C@@H](C)CC)[C@@H](C)CC)C(=O)N[C@@H](CCC(N)=O)C(=O)N[C@@H](CCCCN)C(=O)N[C@@H](CCC(N)=O)C(=O)N[C@@H](CCC(N)=O)C(=O)N[C@@H](C)C(=O)N[C@@H](C)C(=O)N[C@H](C(=O)N[C@@H](CCC(N)=O)C(=O)N[C@@H](CCCCN)C(=O)N[C@@H](CCC(N)=O)C(=O)N[C@H](C(=O)N[C@@H](Cc1ccc(O)cc1)C(=O)N[C@@H](CCCNC(=N)N)C(=O)N[C@@H](CCSC)C(=O)N[C@H](C(=O)N1CCC[C@H]1C(N)=O)[C@@H](C)O)[C@@H](C)CC)[C@@H](C)CC [3aQ] (Ac-MSIEEIQKQQAAIQKQQAAIQKQIYRMTP-NH2) | – | relatively strong | – |
